Reference: ChEMBL document CHEMBL3045101, “Hypoglycemic effect of astaxanthin from shrimp waste in alloxan-induced diabetic mice” (2012)
Activity calls are given as the source filed them. No cut-off for these calls is given here.

Experiments:
Mus musculus [1] = test: Hypoglycemic activity in Mus musculus Kunming (mouse) assessed as reduction of 16 hr fasting plasma glucose level at 2.4 mg/kg, po qd for 7 days by oral glucose tolerance test (reference value: 6.20 +/- 0.63 mmol/l); assay type: functional
Mus musculus [2] = test: Hypoglycemic activity in Mus musculus Kunming (mouse) assessed as reduction of AUC of plasma glucose level at 5 to 10 mg/kg, po qd for 7 days by oral glucose tolerance test; assay type: functional, organism-based
Mus musculus [3] = test: Hypoglycemic activity in Mus musculus Kunming (mouse) assessed as reduction of 16 hr fasting plasma glucose level at 5 mg/kg, po qd for 7 days by oral glucose tolerance test (reference value: 6.20 +/- 0.63 mmol/l); assay type: functional
Mus musculus [4] = test: Hypoglycemic activity in Mus musculus Kunming (mouse) assessed as reduction of 16 hr fasting plasma glucose level at 10 mg/kg, po qd for 7 days by oral glucose tolerance test (reference value: 6.20 +/- 0.63 mmol/l); assay type: functional
Mus musculus [5] = test: Antidiabetic activity in Mus musculus Kunming (mouse) alloxan-induced diabetic model assessed as reduction of 16 hr fasting plasma glucose level at 10 mg/kg, po qd for 7 days (reference value: 6.11 +/- 0.64 mmol/l); assay type: functional
Mus musculus [6] = test: Antidiabetic activity in Mus musculus Kunming (mouse) alloxan-induced diabetic model assessed as reduction of 16 hr fasting plasma glucose level at 5 mg/kg, po qd for 7 days (reference value: 6.11 +/- 0.64 mmol/l); assay type: functional

Compound: Cc1ccc(S(=O)(=O)NC(=O)NN2CC3CCCC3C2)cc1 (configuration not stated) [GLICLAZIDE]
- Activity (Mus musculus [1]): 4.69 mmol/L

Compound: CC1=C(/C=C/C(C)=C/C=C/C(C)=C/C=C/C=C(C)/C=C/C=C(C)/C=C/C2=C(C)C(=O)[C@@H](O)CC2(C)C)C(C)(C)C[C@H](O)C1=O [ASTAXANTHIN]
- Activity (Mus musculus [2]): Active
- Activity (Mus musculus [3]): 6.14 mmol/L
- Activity (Mus musculus [4]): 6.02 mmol/L
- Activity (Mus musculus [5]): 10.11 mmol/L
- Activity (Mus musculus [6]): 13.03 mmol/L

Compound: CN(C)C(=N)NC(=N)N [METFORMIN]
- Activity (Mus musculus [5]): 9.98 mmol/L
